According to patent US20140328799A1, “COMPOSITIONS USEFUL FOR THE TREATMENT OF VIRAL DISEASES” (priority 2011, published 2014):
“Also recorded” adds a separate entry of the source.

System: HCV replicons encoding amino acid variations R155K, A156T, and D168Y in the NS3 protease
Experiment: HCV replicon TaqMan assay, variants compared with wildtype
Format: cell-based, Hepatitis C virus
Settings: NS3 protease variants versus wildtype genotype 1b (con1)
Description: The day prior to titration replicon cells are seeded into a 96-well Costar black-walled clear bottom plate (3,000 cells/well) in 100 μl complete D-MEM and incubated 0/N at 37° C. The next morning 25 μl of compound dilutions (5× final concentration) in complete DMEM and 5% DMSO are added, adjusting the final DMSO concentration to 1.0%. Cells with compound are incubated for 48 hours at 37° C.
Total RNA is isolated from cells of each well using the QIAGEN RNeasy 96-well kit according to manufacturer's instructions (QIAGEN, Inc. Valencia, Calif.). RNA is eluted twice in 60 μl aliquots and combined. […]
The normalized value for the amount of replicon RNA is determined by measuring the experimental cycle threshold CT as described above, determining the amount of RNA against a standard curve of total replicon cell RNA, and normalizing this to the signal produced by the cellular human Cyclophilin A gene using Taqman PDAR Human Cyclophilin (Applied Biosystems Inc., Foster City, Calif.).
HCV replicons encoding amino acid variations R155K, A156T, and D168Y in the NS3 protease have been constructed using standard techniques in molecular cloning. The susceptibility of these replicon variants to inhibition by Compound 6 and a Compound T4, was assessed in the HCV replicon assay, and the results are shown in Table 2. […]

Row | SMILES | change in susceptibility to inhibition of replicon variants versus wildtype
1 | CC[C@@H]1C[C@]1(NC(=O)[C@@H]1C[C@@H]2CN1C(=O)[C@H](C(C)(C)C)NC(=O)OCC(C)(C)CCCCc1cccc3c1CN(C3)C(=O)O2)C(=O)NS(=O)(=O)C1CC1 [Compound 6] | significantly reduced susceptibility to inhibition; also recorded: significant losses of potency
2 | C[C@@]1(O)[C@H](O)[C@@H](CO)O[C@H]1n1cnc2c(N)ncnc21 [Compound T4] | no significant change in susceptibility to inhibition; also recorded: no loss of potency
